Measurements reported in patent US11911386B2, “Methods of treating B-cell proliferative disorder” (BeiGene Switzerland GmbH, priority 2022, dated 2024).

Key:
panel of 370 kinases = experiment: Kinome profiling at 100xIC50 (BTK) concentrations; assay type: biochemical; conditions: 100×IC50 (BTK) concentration
[1] = cited from earlier work
[2] = cited from earlier work; remark: listed apart in the source
[3] = Phase 1 DDI study: treatment-emergent adverse events; assay type: in vivo, human; conditions: N = 13
Protocol: Safety was assessed by monitoring and recording of adverse events (AEs), serious adverse events (SAEs), clinical laboratory tests, physical examinations, and vital signs. […] A TEAE was defined as an AE that started during or after the first dose or started before the first dose and increased in severity after the first dose. AEs were classified based on MedDRA Version 24.0.
Safety and tolerability were assessed, when applicable, by incidence, severity, change from baseline values, and abnormal values for all relevant parameters such as AEs, laboratory parameters, vital signs, and physical examination.

CYP3A = conditions: coadministration of rifabutin with midazolam; cited from earlier work
[4] = RESONATE / RESONATE2 trials: ibrutinib effect (non-inferiority margin derivation); assay type: in vivo, human
[5] = phase 3, relapsed/refractory CLL

SMILES | Off-target kinases inhibited (panel of 370 kinases) [kinases] | Arthralgia, any grade [1, 5] [%] | Atrial fibrillation, any grade [1, 5] [%] | Cough [1, 5] [%] | Fatigue grade ≥3 [1, 5] [%] | Headaches [1, 5] [%] | Hypertension, any grade [1, 5] [%] | Infections grade ≥3 [1, 5] [%] | Decrease of systemic levels after multiple doses (auto-induction) ([2]; in vivo) [%] | Mean t1/2 (standard deviation) ([2]; single oral dose of 300 mg) | Tmax ([2]; single oral dose of 300 mg) [h] | Chromaturia TEAE [3] | Overall TEAEs [3] | Renal and urinary disorders TEAE [3] | Reduction in midazolam exposure (CYP3A) | Pooled PFS HR, fixed-effect meta-analysis [4] | AEs leading to treatment discontinuation ([1]; long-term follow-up, 132 patients) [%]
CC#CC(=O)N1CCC[C@H]1c1nc(-c2ccc(C(=O)Nc3ccccn3)cc2)c2c(N)nccn12 [acalabrutinib] | 15 | 15.8 | 9.0 | 28.9 | 3.4 | 34.6 | 8.6 | 30.8 |  |  |  |  |  |  |  |  | 
CO[C@H]1/C=C/O[C@@]2(C)Oc3c(C)c(O)c4c(c3C2=O)C2=NC3(CCN(CC(C)C)CC3)NC2=C(NC(=O)/C(C)=C\C=C\[C@H](C)[C@H](O)[C@@H](C)[C@@H](O)[C@@H](C)[C@H](OC(C)=O)[C@@H]1C)C4=O [rifabutin] |  |  |  |  |  |  |  |  | 38 | 45 (standard deviation, 17) hours | 2 to 4 | 6 (46.2) n (%) | 6 (46.2) n (%) | 6 (46.2) n (%) | ≈ 3.2 fold |  | 
C=CC(=O)N1CCC[C@@H](n2nc(-c3ccc(Oc4ccccc4)cc3)c3c(N)ncnc32)C1 [ibrutinib, 1-[(3R)-3-[4-amino-3-(4-phenoxyphenyl)-1H-pyrazolo[3,4-d]pyrimidin-1-yl]-1-piperidinyl]-2-propen-1-one] | 17 |  |  |  |  |  |  |  |  |  |  |  |  |  |  | 0.120 | 13
